Each structure is given as a SMILES string. pEC50: −log10 of the molar value. Where two headings read alike, the source gives them in different places.

Among the data in US20230295201A1 (Gilead Sciences, Inc., priority 2020, published 2023) are EC50 values, retold here.

Holding throughout (assay type): cell-based
For one assay, the system named is RSV A2. The experiment in a line: RSV NHBE EC50 (RSV A2 antiviral assay in normal human bronchial epithelial cells). The settings on record: NHBE cells, RSV A2, 4 days, read-out: RSV NHBE EC50.
A further assay concerns RSV strain A2. Kind of assay: RSV HEp-2 EC50 (infectious cytopathic cell protection assay). To be noted: HEp-2 cells, RSV A2, 4 days, read-out: RSV HEp-2 EC50. In outline:
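HEp-2 cells mixed with titered RSV A2 at 50,000 cells/ml were added to plates holding 3-fold serial compound dilutions in DMSO, then incubated 4 days at 37° C. Cytoprotection was read as cell viability by CellTiter-Glo luminescence and converted to percent inhibition against 0% and 100% inhibition controls.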

The next assay concerns HRV16. Kind of assay: HRV16 HELA EC50 (cytopathic effect in H1-HeLa cells). The settings on record: 96 h, H1-HeLa cells, 33° C., read-out: HRV16 HELA EC50. In short, it runs like this:
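H1-HeLa cells seeded one day before, given 3-fold serial compound dilutions in triplicate just prior to infection with pre-titrated virus. Incubated 96 h at 33 °C/5% CO2; protection from cytopathic effect read as viability by CellTiter-Glo luminescence, normalised to infected untreated (0%) and uninfected (100%) controls.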
(Protection from cytopathic effect is a common read-out in antiviral testing.)

The next assay deals with DENV2 replicon. The experiment in a line: DENV-2 Huh-7 Rep EC50 (replicon luminescence). To be noted: Huh-7 replicon cells, 48 hours, read-out: DENV-2 Huh-7 Rep EC50. In short, it runs like this: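 Huh-7 cells carrying a DENV2 replicon, 5,000 cells/well, were incubated with dosed compounds for 48 h at 37° C. EnduRen live-cell substrate was added 1.5 h before luminescence reading. EC50 came from dose-response against DMSO-only wells.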
For orientation: In antiviral work, replicon cells carry a viral genome segment that copies itself.

Where [1] appears, read: human respiratory syncytial virus, NHBE, 96 h.
Setting [2] is: human respiratory syncytial virus, HEp-2, 96 h.
Setting [3] is: Dengue virus, DENV2, Huh-7, 48 h.

Turning to `C[C@H](NP(=O)(OC[C@@]1(C#N)O[C@@H](c2ccc3c(N)ncnn23)[C@H](O)[C@@H]1O)Oc1ccccc1)C(=O)OCC1CC1` (mixture of isomers) [Example 8, (2S)-cyclopropylmethyl 2-(((((2R,3S,4R,5S)-5-(4-aminopyrrolo[2,1-f][1,2,4]triazin-7-yl)-2-cyano-3,4-dihydroxytetrahydrofuran-2-yl)methoxy)(phenoxy)phosphoryl)amino)propanoate], the pEC50 in the assay on RSV A2 (setting [1]) was 6.45; with RSV strain A2 (setting [2]), 6.74; with HRV16, 6.33; in the assay on DENV2 replicon (setting [3]), 4.43.

`CC(C)OC(=O)[C@H](C)NP(=O)(OC[C@@]1(C#N)O[C@@H](c2ccc3c(N)ncnn23)[C@H](O)[C@@H]1O)Oc1ccccc1` (mixture of isomers) [Example 77, Isopropyl ((((2R,3S,4R,5S)-5-(4-aminopyrrolo[2,1-f][1,2,4]triazin-7-yl)-2-cyano-3,4-dihydroxytetrahydrofuran-2-yl)methoxy)(phenoxy)phosphoryl)-L-alaninate]: the pEC50 was 5.94 with RSV A2 (setting [1]), 6.33 in the assay on RSV strain A2 (setting [2]), 5.85 in the assay with HRV16 and 4.30 in the assay with DENV2 replicon (setting [3]).

For `CCC(CC)COC(=O)[C@H](CC)NP(=O)(OC[C@@]1(C#N)O[C@@H](c2ccc3c(N)ncnn23)[C@H](O)[C@@H]1O)Oc1ccccc1` (mixture of isomers) [Example 88, (2S)-2-ethylbutyl 2-(((((2R,3S,4R,5S)-5-(4-aminopyrrolo[2,1-f][1,2,4]triazin-7-yl)-2-cyano-3,4-dihydroxytetrahydrofuran-2-yl)methoxy)(phenoxy)phosphoryl)amino)butanoate], the pEC50 with RSV A2 (setting [1]) is 7.44; in the assay with RSV strain A2 (setting [2]), 6.47; with HRV16 it was 5.98; in the assay with DENV2 replicon (setting [3]), 4.21.

Turning to `CC[C@H](NP(=O)(OC[C@@]1(C#N)O[C@@H](c2ccc3c(N)ncnn23)[C@H](O)[C@@H]1O)Oc1ccccc1)C(=O)OC1CCCCC1` (mixture of isomers) [Example 103, (2S)-cyclohexyl 2-(((((2R,3S,4R,5S)-5-(4-aminopyrrolo[2,1-f][1,2,4]triazin-7-yl)-2-cyano-3,4-dihydroxytetrahydrofuran-2-yl)methoxy)(phenoxy)phosphoryl)amino)butanoate], the pEC50 was 6.26 in the assay on RSV A2 (setting [1]), 6.03 with RSV strain A2 (setting [2]), 5.61 in the assay on HRV16 and below 4.30 in the assay on DENV2 replicon (setting [3]).

Turning to `CCCCCCCCCCCC(=O)OCCNP(=O)(OC[C@@]1(C#N)O[C@@H](c2ccc3c(N)ncnn23)[C@H](O)[C@@H]1O)Oc1ccccc1` (mixture of isomers) [Example 181, 2-(((((2R,3S,4R,5S)-5-(4-aminopyrrolo[2,1-f][1,2,4]triazin-7-yl)-2-cyano-3,4-dihydroxytetrahydrofuran-2-yl)methoxy)(phenoxy)phosphoryl)amino)ethyl dodecanoate], the pEC50 in the assay on RSV A2 (setting [1]) is 7.37; in the assay on RSV strain A2 (setting [2]), 8.10; with HRV16 it was 7.46; with DENV2 replicon (setting [3]), 5.28.

Regarding `C[C@H](N[P@](=O)(OC[C@@]1(C#N)O[C@@H](c2ccc3c(N)ncnn23)[C@H](O)[C@@H]1O)Oc1ccccc1)C(=O)OC1CCCCC1` (single isomer, unassigned) [Example 6], the pEC50 with RSV A2 (setting [1]) was 6.91; in the assay on RSV strain A2 (setting [2]) it was 7.06; in the assay on HRV16 it was 6.64; in the assay with DENV2 replicon (setting [3]) it was 5.53.

With `C[C@H](N[P@](=O)(OC[C@@]1(C#N)O[C@@H](c2ccc3c(N)ncnn23)[C@H](O)[C@@H]1O)Oc1ccccc1)C(=O)O[C@H]1CC[C@H](C(F)(F)F)CC1` (single isomer, unassigned) [Example 18], the pEC50 is 7.04 with RSV A2 (setting [1]), 6.94 in the assay with RSV strain A2 (setting [2]), 6.67 with HRV16 and 4.91 in the assay on DENV2 replicon (setting [3]).

With `C[C@H](N[P@](=O)(OC[C@@]1(C#N)O[C@@H](c2ccc3c(N)ncnn23)[C@H](O)[C@@H]1O)Oc1ccccc1)C(=O)O[C@H]1CC[C@H](C(C)(C)C)CC1` (single isomer, unassigned) [Example 22], the pEC50 is 7.44 in the assay with RSV A2 (setting [1]), 6.99 with RSV strain A2 (setting [2]), 6.70 in the assay with HRV16 and 5.24 in the assay with DENV2 replicon (setting [3]).

Turning to `CCC(CC)COC(=O)[C@H](C)N[P@](=O)(OC[C@@]1(C#N)O[C@@H](c2ccc3c(N)ncnn23)[C@H](O)[C@@H]1O)Oc1ccccc1` (single isomer, unassigned) [Example 25], the pEC50 in the assay with RSV A2 (setting [1]) is 6.90; with RSV strain A2 (setting [2]), 7.59; in the assay with HRV16, 6.87; with DENV2 replicon (setting [3]), 5.54.

Take `C[C@H](NP(=O)(OC[C@@]1(C#N)O[C@@H](c2ccc3c(N)ncnn23)[C@H](O)[C@@H]1O)Oc1ccccc1)C(=O)OCC1CCCCC1` (single isomer, unassigned) [Example 247]: the pEC50 was 6.29 in the assay with RSV A2, 7.36 with RSV strain A2 (setting [2]), 6.50 with HRV16 and 4.92 with DENV2 replicon.

On to `C[C@H](NP(=O)(OC[C@@]1(C#N)O[C@@H](c2ccc3c(N)ncnn23)[C@H](O)[C@@H]1O)Oc1ccccc1)C(=O)OCCC(C)(C)C` (single isomer, unassigned) [Example 252], for which the pEC50 in the assay with RSV A2 was 7.51; with RSV strain A2 (setting [2]), 7.59; in the assay with DENV2 replicon, 5.16.

Take `C[C@H](NP(=O)(OC[C@@]1(C#N)O[C@@H](c2ccc3c(N)ncnn23)[C@H](O)[C@@H]1O)Oc1ccccc1)C(=O)OCCC(C)(C)C` (single isomer, unassigned) [Example 253]: the negative-log EC50 (pEC50) in the assay with RSV A2 is 7.15; in the assay on RSV strain A2, 7.70; with DENV2 replicon, 5.56.

`C[C@H](NP(=O)(OC[C@@]1(C#N)O[C@@H](c2ccc3c(N)ncnn23)[C@H](O)[C@@H]1O)Oc1ccccc1)C(=O)OC1CCCCC1` (stereo partly drawn) [Example 4, (2S)-cyclohexyl 2-(((((2R,3S,4R,5S)-5-(4-aminopyrrolo[2,1-f][1,2,4]triazin-7-yl)-2-cyano-3,4-dihydroxytetrahydrofuran-2-yl)methoxy)(phenoxy)phosphoryl)amino)propanoate]: the pEC50 is 7.12 in the assay on RSV A2 (setting [1]), 7.02 in the assay with RSV strain A2 (setting [2]) and 6.29 with HRV16.

Consider `C[C@H](NP(=O)(OC[C@@]1(C#N)O[C@@H](c2ccc3c(N)ncnn23)[C@H](O)[C@@H]1O)Oc1ccccc1)C(=O)OCC(C)(C)C` (stereo partly drawn) [Example 92, (2S)-neopentyl 2-(((((2R,3S,4R,5S)-5-(4-aminopyrrolo[2,1-f][1,2,4]triazin-7-yl)-2-cyano-3,4-dihydroxytetrahydrofuran-2-yl)methoxy)(phenoxy)phosphoryl)amino)propanoate], for which the negative logarithm of the EC50 (pEC50) in the assay with RSV A2 (setting [1]) was 7.14; in the assay on RSV strain A2 (setting [2]), 7.19; in the assay with HRV16 it was 6.65.

For the compound `C[C@H](NP(=O)(OC[C@@]1(C#N)O[C@@H](c2ccc3c(N)ncnn23)[C@H](O)[C@@H]1O)Oc1ccccc1)C(=O)OCCC(C)(C)C` (stereo partly drawn) [Example 251, 3,3-dimethylbutyl ((((2R,3S,4R,5S)-5-(4-aminopyrrolo[2,1-f][1,2,4]triazin-7-yl)-2-cyano-3,4-dihydroxytetrahydrofuran-2-yl)methoxy)(phenoxy)phosphoryl)-L-alaninate], the values for the pEC50 in the assay on RSV strain A2 (setting [2]) and with DENV2 replicon (setting [3]) were 8.10 and 5.45, respectively.

As for `CCC(C)(C)COC(=O)[C@H](C)NP(=O)(OC[C@@]1(C#N)O[C@@H](c2ccc3c(N)ncnn23)[C@H](O)[C@@H]1O)Oc1ccccc1` (stereo partly drawn) [Example 254, 2,2-dimethylbutyl ((((2R,3S,4R,5S)-5-(4-aminopyrrolo[2,1-f][1,2,4]triazin-7-yl)-2-cyano-3,4-dihydroxytetrahydrofuran-2-yl)methoxy)(phenoxy)phosphoryl)-L-alaninate], the results for the pEC50 in the assay with RSV A2 (setting [1]), in the assay with RSV strain A2 (setting [2]) and with DENV2 replicon (setting [3]) were 7.34, 7.77 and 4.89, respectively.

One may read the pEC50 as −log10 of the EC50, conventionally taken in molar units.
